The subject of data set [1] is intracellular T. cruzi X10/7 A1 amastigotes. The data set is described as follows: Intracellular T. cruzi assay. Format: cell-based, Trypanosoma cruzi. The conditions noted are these: potency against intracellular T. cruzi amastigotes, at least three independent replicates, standard deviations ≤0.2; for EC50: Trypanosoma cruzi, read-out: T. cruzi (pEC50) (converted). As for the experimental part: 1.1 Intracellular T. cruzi assay: Potency against intracellular T. cruzi X10/7 A1 amastigotes was determined as described previously with as sole modification that the compound treatment duration was increased from 72h to 96h.

A short description of data set [2]: ChromLogD pH7.4 (chromatographic hydrophobicity index). Format: physicochemical. As to conditions: pH 7.4, CHIpH7.4 × 0.0857–2; for chromatographic logD: read-out: ChromlogDpH7.4.
Data set [3] can be described thus: Aqueous (kinetic) solubility by CAD. It is filed as physicochemical. The conditions noted are these: kinetic solubility measured by CAD. As for the experimental part: 2.1 Aqueous solubility: This assay was conducted as previously described in [4].
The nature of data set [4]: Intrinsic clearance in mouse liver microsomes. It is filed as in vitro ADME. As to conditions: mouse liver microsomal intrinsic clearance. As for the experimental part:
2.2 Intrinsic clearance: This assay was conducted as previously described in [5].

Converted amounts (≈) assume the structure as drawn.

Regarding `Cc1ccc(S(=O)(=O)Nc2ccc(CN3C[C@@H]4CN(C(=O)c5cccc(Cl)c5)C[C@@H]4C3)cc2)cc1` [Compound 35, N-(4-(((3aR,6aS)-5-(3-chlorobenzoyl)hexahydropyrrolo[3,4-c]pyrrol-2(1H)-yl)methyl)phenyl)-4-methylbenzenesulfonamide], in data set [1], the EC50 is 6.31 µM. Also, the chromatographic logD in data set [2] was 5.8. In data set [3], this compound displayed a solubility of 25 µM (≈ 12.8 µg/mL). Further, in data set [4], the “Mouse CLi” value is greater than 50 mL/min/g.
For the compound `Cc1ccc(S(=O)(=O)Nc2ccc(NC3CCN(C(=O)c4cccc(Cl)c4)CC3)cc2)cc1` [Compound 36, N-(4-((1-(3-chlorobenzoyl)piperidin-4-yl)amino)phenyl)-4-methylbenzenesulfonamide], the EC50 in data set [1] is 20 µM. For the same compound, in data set [2], the chromatographic logD is 5.6. In data set [3], the concentration in solution (solubility) came to 18 µM (≈ 8.71 µg/mL). In data set [4], the “Mouse CLi” value worked out at 25 mL/min/g.
With `Cc1ccc(S(=O)(=O)Nc2ccc(CN3CCN(C(=O)Cc4coc5ccccc45)CC3)cc2)cc1` [Compound 25], in data set [1], the “T. cruzi (pEC50)” value came out at 5.2. In data set [2], this compound registered a ChromlogDpH7.4 of 5.7. Further, in data set [3], the solubility is given as 22 µM (≈ 11.1 µg/mL). In addition, the “Mouse CLi” value in data set [4] was greater than 50 mL/min/g.
As for `Cc1ccc(S(=O)(=O)Nc2ccc(CN(C)C3CCN(C(=O)c4cccc(Cl)c4)C3)cc2)cc1` (stereo in doubt) [Compound 34, (S)-N-(4-(((1-(3-chlorobenzoyl)pyrrolidin-3-yl)(methyl)amino)methyl)phenyl)-4-methylbenzenesulfonamide], the EC50 in data set [1] is 10 µM. Moreover, the chromatographic logD in data set [2] was 5.7. In data set [3], this compound yielded a solubility of 28 µM (≈ 13.9 µg/mL). In data set [4], the “Mouse CLi” value was greater than 50 mL/min/g.
As to “4-methoxy-N-(4-((4-(1-methyl-4-oxo-1,4-dihydroquinoline-2-carbonyl)piperazin-1-yl)methyl)phenyl)benzenesulfonamide [Compound 27]”, in data set [1], the “T. cruzi (pEC50)” value was determined as 5.4. The compound further gave a ChromlogDpH7.4 in data set [2] of 5.4. This compound showed a solubility in data set [3] of 29 µM. In addition, the “Mouse CLi” value in data set [4] is on record as greater than 50 mL/min/g.
With `O=C(c1cccc(Cl)c1)N1CCN(Cc2ccc(NS(=O)(=O)CC3CCCO3)cc2)CC1` (stereo not drawn) [Compound 7, N-(4-((4-(3-chlorobenzoyl)piperazin-1-yl)methyl)phenyl)-1-(tetrahydrofuran-2-yl)methanesulfonamide], the EC50 in data set [1] is 15.8 µM. In addition, the chromatographic logD in data set [2] was determined as 4.6. Also, the solubility in data set [3] was 486 µM (≈ 232 µg/mL). For the same compound, in data set [4], the “Mouse CLi” value came out at 44 mL/min/g.
The like results for `COc1ccc(S(=O)(=O)Nc2ccc(CN3CCN(C(=O)c4cncc(Cl)c4)CC3)cc2)cc1` [Compound 16, N-(4-((4-(5-chloronicotinoyl)piperazin-1-yl)methyl)phenyl)-4-methoxybenzenesulfonamide] were, in that order, 1 µM, 4.3, 171 µM (≈ 85.7 µg/mL) and greater than 50 mL/min/g.
The matching figures for `N#Cc1ccc(S(=O)(=O)Nc2ccc(CN3CCN(C(=O)c4cccc(Cl)c4)CC3)cc2)cc1` [Compound 5, N-(4-((4-(3-chlorobenzoyl)piperazin-1-yl)methyl)phenyl)-4-cyanobenzenesulfonamide]: 7.94 µM, 5.2, 54 µM (≈ 26.7 µg/mL) and greater than 50 mL/min/g.
Regarding `O=C(c1cccc(Cl)c1)N1CCN(Cc2ccc(N3CCCCS3(=O)=O)cc2)CC1` [Compound 8, (3-chlorophenyl)(4-(4-(1,1-dioxido-1,2-thiazinan-2-yl)benzyl)piperazin-1-yl)methanone], the EC50 in data set [1] is 25.1 µM. In addition, the chromatographic logD in data set [2] was 5.1. Besides, the solubility in data set [3] is no less than 402 µM. The “Mouse CLi” value in data set [4] worked out at 21 mL/min/g.
Turning to `COc1ccc(S(=O)(=O)Nc2ccc(CN3CCN(C(=O)c4cccc(C)c4)CC3)cc2)cc1` [Compound 12], the EC50 in data set [1] was 1 µM. For the same compound, in data set [2], the chromatographic logD turned out to be 5.1. This compound also gave a solubility in data set [3] of 64 µM (≈ 30.7 µg/mL).

The values are drawn from publication PMC11458808, “Identification and development of a series of disubstituted piperazines for the treatment of Chagas disease” (European Journal of Medicinal Chemistry, 2022).
